From ChEMBL document CHEMBL1212812, “Multi-target spectral moment QSAR versus ANN for antiparasitic drugs against different parasite species” (Bioorg Med Chem, 2010)

How the values were obtained:
Format in all cases: functional, organism-based
[1] = system: Trypanosoma brucei rhodesiense; experiment: Antimicrobial activity against Trypanosoma brucei rhodesiense
[2] = system: Toxoplasma gondii; experiment: Antimicrobial activity against Toxoplasma gondii
[3] = system: Cryptosporidium parvum; experiment: Antimicrobial activity against Cryptosporidium parvum
[4] = system: Trypanosoma brucei brucei; experiment: Antimicrobial activity against Trypanosoma brucei brucei
[5] = system: Leishmania donovani; experiment: Antimicrobial activity against Leishmania donovani

Compound | IC50 [1] | IC50 ([2]; Toxoplasma gondii) | further results
NCCCN(CCN)CCc1c[nH]c2ccccc12 | 16 µM | – | –
c1ccc2cc(Sc3cc4ccccc4[nH]3)ccc2c1 | – | 4 µM | –
CN(Cc1cnc2nc(N)nc(N)c2n1)c1ccc(C(=O)NC(CO)CCO)cc1 (stereo not drawn) | – | – | IC50 [3]: 2 µM
CN[C@H]1[C@@H]2CN(c3nc4c(cc3F)c(=O)c(C(=O)O)cn4-c3ccc(F)cc3F)C[C@@H]21 [TROVAFLOXACIN2] | – | 1 µM | –
N/N=C/c1ccc([N+](=O)[O-])o1 | 2 µM | – | IC50 [4]: 14 µM
COc1cc(Cc2csc3nc(N)nc(N)c23)c(Br)c(OC)c1OC | – | – | IC50 [3]: 3 µM
c1ccc2[nH]c(Sc3cccc4ccccc34)cc2c1 | – | 3 µM | –
CSc1c(Sc2ccc([N+](=O)[O-])cc2)[nH]c2ccccc12 | – | 28 µM | –
Nc1nc(N)c2nc(Cc3ccc(Cl)c(Cl)c3)c(Cc3ccc(Cl)c(Cl)c3)nc2n1 | – | – | IC50 [3]: 4 µM
O=C(O)COCCOCCOc1cc(Cl)c(Cl)cc1Cl | – | 1 µM | –
NC[C@@H]1[C@H]2CN(c3nc4c(cc3F)c(=O)c(C(=O)O)cn4C3CC3)C[C@@H]12 [TROVAFLOXACIN9] | – | 12 µM | –
Nc1nc(N)c2nc(CN3c4ccccc4CC4C=CC=CC43)cnc2n1 (stereo not drawn) | – | – | IC50 [3]: 1 µM
[O-][S+](c1ccccc1)c1cc2ccccc2[nH]1 (stereo not drawn) | – | 50 µM | –
C[C@@H]1[C@@H]2[C@@H](CN)[C@@H]2CN1c1nc2c(cc1F)c(=O)c(C(=O)O)cn2-c1ccc(F)cc1F [TROVAFLOXACIN7] | – | 3 µM | –
COc1cc(Cc2sc3nc(N)nc(N)c3c2C)cc(OC)c1OC | – | – | IC50 [3]: 2 µM
C[C@@H]1[C@@H]2[C@@H](N)[C@@H]2CN1c1nc2c(cc1F)c(=O)c(C(=O)O)cn2-c1ccc(F)cc1F [TROVAFLOXACIN1] | – | 1 µM | –
NC(=O)c1nnn(Cc2cc(Cl)c(C(=O)C34CC5CC(CC(C5)C3)C4)c(Cl)c2)c1N | – | 15 µM | –
N[C@@H]1[C@H]2CN(c3nc4c(cc3F)c(=O)c(C(=O)O)cn4-c3ccc(F)cc3F)C[C@@H]12 (stereo in doubt; form 1) [TROVAFLOXACIN] | – | 3 µM | –
COc1ccc(Sc2cc3ccccc3[nH]2)cc1 | – | 17 µM | –
O=[N+]([O-])c1ccc(Sc2cc3ccccc3[nH]2)cc1 | – | 14 µM | –
Nc1nc(N)c2c(n1)-c1ccsc1CC2 | – | – | IC50 [3]: 30 µM
COc1cc(Cc2sc3nc(N)nc(N)c3c2C)c(Br)c(OC)c1OC | – | – | IC50 [3]: 2 µM
Nc1nc(N)c2cc(/C=C/c3ccccc3)ccc2n1 | – | – | IC50 [3]: 1 µM
O=[N+]([O-])c1cccc(Sc2cc3ccccc3[nH]2)c1 | – | 2 µM | –
COc1cc(CCc2cc3c(N)nc(N)nc3s2)c(Br)c(OC)c1OC | – | – | IC50 [3]: 5 µM
c1ccc(Sc2cc3ccccc3[nH]2)cc1 | – | 1 µM | –

Compound | IC50 [1] | IC50 ([2]; Toxoplasma gondii) | further results
COc1cccc2nc(N)nc(N)c12 | – | – | IC50 [3]: 3 µM
NC[C@@H]1[C@H]2CN(c3nc4c(cc3F)c(=O)c(C(=O)O)cn4-c3ccc(F)cc3F)C[C@@H]12 [TROVAFLOXACIN11] | – | 9 µM | –
Nc1nc(N)c2nc(Cc3ccc(Cl)cc3)c(Cc3ccc(Cl)cc3)nc2n1 | – | – | IC50 [3]: 1 µM
O=[N+]([O-])c1ccc(/C=N/O)o1 [NIFUROXIME] | 1 µM | – | IC50 [4]: 1 µM
C[C@H]1[C@H](C)CC[C@]2(C(=O)O)CC[C@]3(C)C(=CC[C@@H]4[C@@]5(C)CC[C@H](O)C(C)(C)[C@@H]5CC[C@]43C)[C@H]12 [URSOLIC ACID] | – | 1 µM | –
COc1ccc(OC)c(NCc2ccc3nc(N)nc(N)c3n2)c1 | – | – | IC50 [3]: 1 µM
Nc1nc(N)c2c(n1)CCC(Cc1ccsc1)C2 (stereo not drawn) | – | – | IC50 [3]: 1 µM
CCCN(CCC)c1ccc(S(=O)(=O)Nc2ccccc2)cc1[N+](=O)[O-] | – | – | IC50 [4]: 20 µM; IC50 [5]: 43 µM
N[C@@H]1[C@H]2CN(c3nc4c(cc3F)c(=O)c(C(=O)O)cn4C3CC3)C[C@@H]12 [TROVAFLOXACIN4] | – | 2 µM | –
Nc1nc(N)c2c(n1)CCC(c1ccccc1)C2 (stereo not drawn) | – | – | IC50 [3]: 2 µM
CCC1CCc2nc(N)nc(N)c2C1 (stereo not drawn) | – | – | IC50 [3]: 9 µM
NC12CC1CN(c1nc3c(cc1F)c(=O)c(C(=O)O)cn3-c1ccc(F)cc1F)C2 (stereo not drawn) [TROVAFLOXACIN8] | – | 7 µM | –
CCCC(C)NC(=O)c1ccc(N(C)Cc2cnc3nc(N)nc(N)c3n2)cc1 (stereo not drawn) | – | – | IC50 [3]: 1 µM
COc1cc(CN2CCc3nc(N)nc(N)c3C2)c(Br)c(OC)c1OC | – | – | IC50 [3]: 3 µM
Nc1nc(N)c2nc(CN3c4ccccc4SC4C=CC=CC43)cnc2n1 (stereo not drawn) | – | – | IC50 [3]: 1 µM
CCCN(CCC)c1c([N+](=O)[O-])cc(S(=O)(=O)Nc2cccc(OC)c2)cc1[N+](=O)[O-] | – | – | IC50 [4]: 1 µM; IC50 [5]: 8 µM
Nc1nc(N)c2cc(CN3c4ccccc4C=CC4C=CC=CC43)cnc2n1 (stereo not drawn) | – | – | IC50 [3]: 1 µM
COc1cc(Cc2cnc(N)nc2N)cc(OC)c1OC [TRIMETHOPRIM] | – | – | IC50 [3]: 4 µM
N[C@@H]1[C@H]2CN(c3cc4c(cc3F)c(=O)c(C(=O)O)cn4-c3ccc(F)cc3F)C[C@@H]12 [TROVAFLOXACIN6] | – | 3 µM | –
Cc1c(F)c(N2C[C@@H]3[C@@H](N)[C@@H]3C2)nc2c1c(=O)c(C(=O)O)cn2-c1ccc(F)cc1F [TROVAFLOXACIN3] | – | 1 µM | –
NCC12CC1CN(c1nc3c(cc1F)c(=O)c(C(=O)O)cn3C1CC1)C2 (stereo not drawn) [TROVAFLOXACIN10] | – | 12 µM | –
COc1ccc(OC)c(-c2sc3nc(N)nc(N)c3c2C)c1 | – | – | IC50 [3]: 1 µM
N[C@@H]1[C@H]2CN(c3nc4c(cc3F)c(=O)c(C(=O)O)cn4-c3ccc(F)cc3F)C[C@@H]12 (stereo in doubt; form 2) [TROVAFLOXACIN] | – | – | IC50 [2]: 2 µM
CCCN(CCC)c1c([N+](=O)[O-])cc(S(=O)(=O)N2CCOCC2)cc1[N+](=O)[O-] | – | – | IC50 [4]: 100 µM; IC50 [5]: 100 µM
CCCN(CCC)c1c([N+](=O)[O-])cc(S(=O)(=O)Nc2cccc(Cl)c2)cc1[N+](=O)[O-] | – | – | IC50 [4]: 2 µM; IC50 [5]: 6 µM

Second part, led by results:

IC50 [1] | Compound | IC50 ([2]; Toxoplasma gondii) | further results
21 µM | CN(CCCNC(=O)OCc1ccccc1)CCNC(=O)OCc1ccccc1 | – | –
2 µM | CN(CCCNC1=NCCN1)CCNC1=NCCN1 | – | –
30 µM | CC(=O)OCCN(CCCNC(=O)OCc1ccccc1)CCNC(=O)OCc1ccccc1 | – | –
1 µM | O=C(NCCCN1CCN(C(=O)OCc2ccccc2)C1)OCc1ccccc1 | – | –
80 µM | N=C(N)c1ccc(NC(=O)Cn2cnc([N+](=O)[O-])c2)cc1 | – | IC50 [4]: 200 µM
17 µM | C1CN(N2CCNCC2)CCN1 | – | –
69 µM | CN(CCN)CCCN | – | –
5 µM | CC(C)(C)CC(=O)N1CCN(N2CCN(C(=O)CC(C)(C)C)CC2)CC1 | – | –
6 µM | N=C(N)c1ccc(NC(=O)Cn2ccnc2[N+](=O)[O-])cc1 | – | IC50 [4]: 200 µM
21 µM | N=C(NCCCN(CCNC(=N)NC1CCCCC1)C(=N)NC1CCCCC1)NC1CCCCC1 | – | –
2 µM | CC1CS(=O)(=O)CCN1/N=C/c1ccc([N+](=O)[O-])o1 (stereo not drawn) [NIFURTIMOX] | – | IC50 [4]: 6 µM
14 µM | CC(C)(C)OC(=O)NCCNC(=S)N1CCN(N2CCN(C(=S)NCCNC(=O)OC(C)(C)C)CC2)CC1 | – | –
49 µM | NCCCNCCN | – | –
11 µM | C(CNCCNC1=NCCN1)CNC1=NCCN1 | – | –
20 µM | N=C(N)NCCCNCCNC(=N)N | – | –
13 µM | Nc1nc(N)nc(N/N=C\c2ccco2)n1 | – | IC50 [4]: 29 µM
4 µM | O=C(NCCCN(CCO)CCNC(=O)OCc1ccccc1)OCc1ccccc1 | – | –
3 µM | O=C(CCN1CCCN(C(=O)OCc2ccccc2)C1)OCc1ccccc1 | – | –
10 µM | Nc1nc(N)nc(N/N=C\c2cccs2)n1 | – | IC50 [4]: 89 µM
84 µM | O=C(NCCCN(CCNC(=O)OCc1ccccc1)CCc1c[nH]c2ccccc12)OCc1ccccc1 | – | –
28 µM | C1CNC(N2CCN(N3CCN(C4=NCCN4)CC3)CC2)=N1 | – | –
